One data set has as its system Huh7 cells. Briefly: Incucyte growth curves, Huh7. It counts as cell-based, human. The note with it: 1μM or 5μM; compared to DMSO. The procedure:
Huh7, Huh7 PNPLA3 I148M, Huh7 PNPLA3, Hep3b and LX-2 cells were seeded at a concentration of 1000 cells/well in 60 μl of growth medium on 384-well microtiter plates (Revvity, Waltham, MA, USA, PhenoPlate 384-well microplate, #6057308) and stored in a 37°C incubator with 5% CO2 and 95% humidity overnight. Next day cells were treated with DMSO as control (1% final concentration) or compound (1μM or 5μM final concentration) and cell density was recorded in the Incucyte® life cell imager (Sartorius, Göttingen, Germany) every 4 hours over a period of 5 days. Growth curves were generated by monitoring confluence over time. Proliferative capacity of PNPLA3 I148M-expressing cells was compared to control cells, and the restoration of proliferative fitness was analyzed.

The next data set addresses T1, PNPLA2 (Homo sapiens, UniProt Q96AD5).
T1 sequence (Q96AD5 1-504): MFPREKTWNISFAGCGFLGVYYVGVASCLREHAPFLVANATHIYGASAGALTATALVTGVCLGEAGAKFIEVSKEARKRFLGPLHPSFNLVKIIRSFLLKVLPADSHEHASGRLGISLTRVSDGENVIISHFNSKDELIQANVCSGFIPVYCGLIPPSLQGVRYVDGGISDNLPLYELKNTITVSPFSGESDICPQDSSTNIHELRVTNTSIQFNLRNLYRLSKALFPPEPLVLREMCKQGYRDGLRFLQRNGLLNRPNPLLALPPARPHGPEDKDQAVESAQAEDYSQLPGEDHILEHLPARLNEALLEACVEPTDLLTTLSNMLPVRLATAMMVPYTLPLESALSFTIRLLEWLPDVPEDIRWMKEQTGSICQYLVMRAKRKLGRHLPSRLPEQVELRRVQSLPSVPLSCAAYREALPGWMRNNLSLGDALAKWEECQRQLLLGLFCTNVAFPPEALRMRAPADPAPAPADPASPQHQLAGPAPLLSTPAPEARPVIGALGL
Briefly: nanoDSF thermal shift, PNPLA2 protein. It counts as binding. The following applies: ligand 25 μM. From the text: To investigate the mode of action of NUV-244, we evaluated its direct binding to the PNPLA3 I148M protein using nano differential scanning fluorimetry (nanoDSF). In this assay, compounds that bind to a target protein can lead to thermal stabilization, preventing protein denaturation, which is reflected in a shift of the protein melting curve.
Full-length wild-type PNPLA3 (Q9NST1), mutant PNPLA3 (I148M), and PNPLA2 (Q96AD5) were cloned into the pVL1393 vector with an N-terminal Flag-Tag. Proteins were expressed in SF9 cells infected at a multiplicity of infection (MOI) of 1 for 72 hours. Protein purification was performed using a two-step process. The first step involved affinity purification using M2 anti-Flag agarose beads. This was followed by gel filtration chromatography using a Superdex 200 column. Thermal melting experiments were carried out using a Prometheus NT.48 instrument (NanoTemper Technologies). Proteins were prepared in 20 mM Tris-HCl pH 7.4, 100 mM NaCl, 5 % Glycerol, 2 mM DTT and 0.2 mg/mL was used as a final concentration in 50 μL volume. For binding experiments, ligands were added to the mixture at a final concentration of 25 μM, DMSO was used as control. […] The intrinsic protein fluorescence at 330 and 350 nm was recorded. Data were analysed using Prometheus NT.48 software. Thermal shifts (ΔTm) were calculated, and Z-scores greater than 6 indicated robust stabilization. […]

The next data set concerns the target T2, PNPLA3 I148M-tagRFP (Homo sapiens, UniProt Q9NST1, I148M).
T2 construct: host or cells: Huh7
T2 sequence (Q9NST1 1-481 I148M): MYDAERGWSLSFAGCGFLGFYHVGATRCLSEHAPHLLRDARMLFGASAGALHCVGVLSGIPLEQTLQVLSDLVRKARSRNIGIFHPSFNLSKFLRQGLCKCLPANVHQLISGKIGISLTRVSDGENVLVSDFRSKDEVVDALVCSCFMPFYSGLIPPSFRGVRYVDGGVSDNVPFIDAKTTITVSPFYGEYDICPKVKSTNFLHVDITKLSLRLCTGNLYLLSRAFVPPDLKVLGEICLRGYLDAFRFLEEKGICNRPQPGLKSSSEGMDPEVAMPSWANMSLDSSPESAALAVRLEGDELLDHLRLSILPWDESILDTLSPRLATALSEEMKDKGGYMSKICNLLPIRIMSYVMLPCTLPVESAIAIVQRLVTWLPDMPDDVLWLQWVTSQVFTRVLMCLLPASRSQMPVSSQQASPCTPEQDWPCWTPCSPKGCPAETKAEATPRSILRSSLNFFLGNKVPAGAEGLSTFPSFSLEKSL
The data set can be described thus: Huh7 PNPLA3 I148M-tagRFP reduction on lipid droplets (high-content imaging). The class given is cell-based. On the procedure: For dose-response cells were seeded at 4000 c/30 μl per well in 384 well plates (Revvity, Waltham, MA, USA, PhenoPlate 384-well microplate, #6057308) and stored in a 37°C incubator with 5% CO2 and 95% humidity overnight. Compounds, serially diluted, and DMSO controls were added, and cells were incubated for another 24h. Cells were fixed and stained with a mixture of Paraformaldehyde (final 1%, Electron Microscopy Science), BODIPY (final 38 nM, Invitrogen) and Hoechst 33342 (final 2 μg/ml, Biotium) diluted in PBS for 30 min at room temperature in the dark (no wash off).
Confocal images were acquired using the Opera Phenix system (Revvity, USA) with a 10x, 20x or 40x water objective and excitation at 405 nm (Hoechst), 488 nm (BODIPY), and 532 nm (PNPLA3 I148M-tagRFP).
Images were analyzed using Harmony (Revvity) and MetaXpress software (Molecular Devices, USA) to quantify lipid droplet morphology and PNPLA3 I148M-tagRFP intensity.
Assay plates were evaluated based on Z’ scores (>0.6) and signal-to-background ratio (>12) using Genedata Screener® for HTS and Condoseo modules (Genedata, Switzerland). Normalization, quality control, and fitting curves for EC50 determination of tested compounds were performed with Genedata Screener® for high-content screening and Genedata Condoseo modules (Genedata AG, Basel, Switzerland). More than 820K cpds were screened on 791 1536W plates in 11 runs covering three weeks of primary HTS. Automated image analysis routines were set up to quantify the number, morphology and intensity of nuclei, lipid droplets and the intensity of PNPLA3 I148M-tagRFP on lipid droplets. Toxic or autofluorescent compounds were excluded from the hitlist based on nuclear count, area, and intensity measurements as well as lipid droplet staining intensity compared to control cells.

These results are taken from publication PMC12049818, “Identification of NUV-244 as a PNPLA3 I148M degrading small molecule” (iScience, 2025).

Like-named read-outs stand apart in the source and are kept apart here.

In the case of `Cc1cccc(Cc2nc(C)c(C(=O)Nc3cc(O)ccc3Cl)s2)c1` [NUV-244], the “effect on proliferative capacity, Huh7” value in the data set with Huh7 cells was “no effects”. In addition, the “effect on melting curve of PNPLA2 protein” value on PNPLA2 is on record as “did not affect the melting curve”. Moreover, the 50% effective concentration (EC50) at PNPLA3 I148M-tagRFP (HTS batch (hit), 24h, two independent determinations, read-out: EC50 Huh7, PNPLA3 I148M-tagRFP reduction) is 2.28e-07 ± 3.1e-08 M; at PNPLA3 I148M-tagRFP (representative dose-response curve, Figure 2D, read-out: EC50 [M] Huh7, PNPLA3-I148M-tagRFP), 2.05e-07 M; on PNPLA3 I148M-tagRFP (representative dose-response curve, Figure 3B, read-out: EC50 [M] Huh7, PNPLA3 I148M-tagRFP) it was 3.51e-07 M; at PNPLA3 I148M-tagRFP (resynthesis, representative curve, Figure 4C, read-out: EC50 [M] Huh7, PNPLA3 I148M-tagRFP intensity on lipid droplets), 3.8e-07 M.
